In BigSolDB 2.1:

Cl.N/N=C(\N)NN
Conditions	solubility (mole fraction)
in THF, 273.15 K	1.96e-05
in THF, 278.15 K	2.74e-05
in THF, 283.15 K	3.7e-05
in THF, 288.15 K	5.17e-05
in THF, 293.15 K	6.85e-05
in THF, 298.15 K	9.12e-05
in THF, 303.15 K	0.000119
in THF, 308.15 K	0.000154
in THF, 313.15 K	0.000209
in THF, 318.15 K	0.000265
in THF, 323.15 K	0.000333
in acetonitrile, 273.15 K	7.35e-06
in acetonitrile, 278.15 K	1.19e-05
in acetonitrile, 283.15 K	1.4e-05
in acetonitrile, 288.15 K	2.09e-05
in acetonitrile, 293.15 K	2.72e-05
in acetonitrile, 298.15 K	3.41e-05
in acetonitrile, 303.15 K	5.02e-05
in acetonitrile, 308.15 K	6.91e-05
in acetonitrile, 313.15 K	8.3e-05
in acetonitrile, 318.15 K	9.96e-05
in acetonitrile, 323.15 K	0.000142
in ethanol, 273.15 K	0.000112
in ethanol, 278.15 K	0.000156
in ethanol, 283.15 K	0.000207
in ethanol, 288.15 K	0.0003
in ethanol, 293.15 K	0.000373
in ethanol, 298.15 K	0.00054
in ethanol, 303.15 K	0.000666
in ethanol, 308.15 K	0.000904
in ethanol, 313.15 K	0.00119
in ethanol, 318.15 K	0.00158
in ethanol, 323.15 K	0.002
in ethyl acetate, 273.15 K	1.56e-05
in ethyl acetate, 278.15 K	2.2e-05
in ethyl acetate, 283.15 K	3.03e-05
in ethyl acetate, 288.15 K	4.16e-05
in ethyl acetate, 293.15 K	5.57e-05
in ethyl acetate, 298.15 K	7.51e-05
in ethyl acetate, 303.15 K	0.000101
in ethyl acetate, 308.15 K	0.00013
in ethyl acetate, 313.15 K	0.000169
in ethyl acetate, 318.15 K	0.000217
in ethyl acetate, 323.15 K	0.000281
in isobutanol, 273.15 K	2.22e-05
in isobutanol, 278.15 K	3.04e-05
in isobutanol, 283.15 K	4.2e-05
in isobutanol, 288.15 K	5.88e-05
in isobutanol, 293.15 K	7.77e-05
in isobutanol, 298.15 K	0.000105
in isobutanol, 303.15 K	0.000134
in isobutanol, 308.15 K	0.000177
in isobutanol, 313.15 K	0.000233
in isobutanol, 318.15 K	0.000301
in isobutanol, 323.15 K	0.000389
in isopropanol, 273.15 K	2.41e-05
in isopropanol, 278.15 K	3.39e-05
in isopropanol, 283.15 K	4.68e-05
in isopropanol, 288.15 K	6.35e-05
in isopropanol, 293.15 K	8.43e-05
in isopropanol, 298.15 K	0.000112
in isopropanol, 303.15 K	0.000148
in isopropanol, 308.15 K	0.000192
in isopropanol, 313.15 K	0.000248
in isopropanol, 318.15 K	0.000326
in isopropanol, 323.15 K	0.000417
in methanol, 273.15 K	0.00218
in methanol, 278.15 K	0.00272
in methanol, 283.15 K	0.00338
in methanol, 288.15 K	0.00436
in methanol, 293.15 K	0.00522
in methanol, 298.15 K	0.00664
in methanol, 303.15 K	0.00802
in methanol, 308.15 K	0.00971
in methanol, 313.15 K	0.0118
in methanol, 318.15 K	0.0144
in methanol, 323.15 K	0.0175
in n-butanol, 273.15 K	3.27e-05
in n-butanol, 278.15 K	4.64e-05
in n-butanol, 283.15 K	6.17e-05
in n-butanol, 288.15 K	8.36e-05
in n-butanol, 293.15 K	0.000111
in n-butanol, 298.15 K	0.000147
in n-butanol, 303.15 K	0.000197
in n-butanol, 308.15 K	0.000259
in n-butanol, 313.15 K	0.000345
in n-butanol, 318.15 K	0.000432
in n-butanol, 323.15 K	0.000549
in n-heptane, 273.15 K	1.74e-05
in n-heptane, 278.15 K	2.52e-05
in n-heptane, 283.15 K	3.41e-05
in n-heptane, 288.15 K	4.7e-05
in n-heptane, 293.15 K	6.36e-05
in n-heptane, 298.15 K	8.63e-05
in n-heptane, 303.15 K	0.000119
in n-heptane, 308.15 K	0.000153
in n-heptane, 313.15 K	0.000204
in n-heptane, 318.15 K	0.000264
in n-heptane, 323.15 K	0.000334
in n-hexane, 273.15 K	1.77e-05
in n-hexane, 278.15 K	2.5e-05
in n-hexane, 283.15 K	3.47e-05
in n-hexane, 288.15 K	4.69e-05
in n-hexane, 293.15 K	6.58e-05
in n-hexane, 298.15 K	8.84e-05
in n-hexane, 303.15 K	0.000115
in n-hexane, 308.15 K	0.000154
in n-hexane, 313.15 K	0.000205
in n-hexane, 318.15 K	0.000261
in n-hexane, 323.15 K	0.00035
in n-propanol, 273.15 K	4.25e-05
in n-propanol, 278.15 K	5.9e-05
in n-propanol, 283.15 K	7.94e-05
in n-propanol, 288.15 K	0.00011
in n-propanol, 293.15 K	0.000145
in n-propanol, 298.15 K	0.000189
in n-propanol, 303.15 K	0.000253
in n-propanol, 308.15 K	0.000319
in n-propanol, 313.15 K	0.000412
in n-propanol, 318.15 K	0.000539
in n-propanol, 323.15 K	0.000675
in water, 273.15 K	0.0395
in water, 278.15 K	0.0481
in water, 283.15 K	0.0546
in water, 288.15 K	0.0664
in water, 293.15 K	0.0778
in water, 298.15 K	0.0879
in water, 303.15 K	0.101
in water, 308.15 K	0.112
in water, 313.15 K	0.127
in water, 318.15 K	0.145
in water, 323.15 K	0.161
